In patent US5591714A, “Derivatives of A82846” (priority 1994, dated 1997):
Converted amounts (≈) assume the structure as drawn.

Columns and labels:
[1] = tested on: six vancomycin-susceptible strains of staphylococci and enterococci; assay: Effect of human serum on the MIC, serial dilution assay; assay type: cell-based
Text: Another important property of the formula I compounds is the low binding of the compounds to serum proteins when compared with other glycopeptide antibiotics. […] The ratio of the MIC measured in the presence of added serum to the MIC measured in the absence of added serum ("ratio") is an indication of the degree of serum binding. […] A ratio that is greater than one, for example about ten, indicates the compound has a high degree of serum binding.

[2] = tested on: Enterococcus faecalis 2041; assay: MIC, standard agar-dilution assay; assay type: cell-based
Procedure: (§1) The formula I compounds have in vitro and in vivo activity against Gram-positive pathogenic bacteria. The MIC's were determined using a standard agar-dilution assays.
^c Formerly Streptococcus faecalis 2041

Streptococcus pyogenes = assay: In vivo activity, experimentally infected mice (ED50); settings: Streptococcus pyogenes infection; doses administered subcutaneously to mice 1 and 4 hours postinfection
[3] = tested on: vancomycin-resistant (Vanco^r) E. faecium and E. faecalis; assay: Susceptibility of vancomycin-resistant enterococci, agar-dilution MIC; assay type: cell-based; settings: for Geometric Mean MIC, Vanco^r Strains: n = 25 strains, end points read after 24-hour incubation
Procedure: (§2) End points were read after 24-hour incubation. The ratio was calculated by dividing the mean MIC of the compound against the vancomycin-resistant strains by the mean MIC of the compound against the vancomycin-susceptible strains.

Enterococcus faecium X66 = assay: MIC, standard agar-dilution assay; assay type: cell-based
Procedure: as §1
^b Formerly Streptococcus faecium X66

Staphylococcus aureus = assay: In vivo activity, experimentally infected mice (ED50); settings: Staphylococcus aureus infection; doses administered subcutaneously to mice 1 and 4 hours postinfection
[4] = tested on: vancomycin-susceptible (Vanco^s) E. faecium and E. faecalis; assay: Susceptibility of vancomycin-susceptible enterococci, agar-dilution MIC; assay type: cell-based; settings: n = 34 strains; end points read after 24-hour incubation
Procedure: as §2

[5] = tested on: Streptococcus pneumoniae Park 1; assay type: cell-based
Procedure: as §1

[6] = tested on: Haemophilus influenzae 76; assay: MIC, standard agar-dilution assay; assay type: cell-based
Procedure: as §1

[7] = tested on: Streptococcus pyogenes C203; assay: MIC, standard agar-dilution assay; assay type: cell-based
Procedure: as §1

Escherichia coli N10 = assay: MIC, standard agar-dilution assay; assay type: cell-based
Procedure: as §1

[8] = tested on: Staphylococcus aureus V41; assay: MIC, standard agar-dilution assay; assay type: cell-based
Procedure: as §1

[9] = tested on: Klebsiella pneumoniae X26; assay: MIC, standard agar-dilution assay; assay type: cell-based
Procedure: as §1

[10] = tested on: Staphylococcus epidermidis EPI270; assay: MIC, standard agar-dilution assay; assay type: cell-based
Procedure: as §1

[11] = tested on: Haemophilus influenzae C.L.; assay: MIC, standard agar-dilution assay; assay type: cell-based
Procedure: as §1

[12] = tested on: Klebsiella pneumoniae X68; assay: MIC, standard agar-dilution assay; assay type: cell-based
Procedure: as §1

[13] = tested on: Staphylococcus epidermidis 222; assay: MIC, standard agar-dilution assay; assay type: cell-based
Procedure: as §1

[14] = tested on: Klebsiella pneumoniae KAE; assay: MIC, standard agar-dilution assay; assay type: cell-based
Procedure: as §1

[15] = tested on: Staphylococcus aureus NRRL X1.1; assay: MIC, standard agar-dilution assay; assay type: cell-based
Procedure: as §1

Escherichia coli TEM = assay: MIC, standard agar-dilution assay; assay type: cell-based
Procedure: as §1

[16] = tested on: Staphylococcus aureus X400; assay: MIC, standard agar-dilution assay; assay type: cell-based
Procedure: as §1

Escherichia coli EC14 = assay: MIC, standard agar-dilution assay; assay type: cell-based
Procedure: as §1

Streptococcus pneumoniae = assay: In vivo activity, experimentally infected mice (ED50); settings: Streptococcus pneumoniae infection; doses administered subcutaneously to mice 1 and 4 hours postinfection
[17] = tested on: Staphylococcus aureus S13E; assay type: cell-based
Procedure: as §1

CNC(CC(C)C)C(=O)NC1C(=O)NC(CC(N)=O)C(=O)NC2C(=O)NC3C(=O)NC(C(=O)NC(C(=O)O)c4cc(O)cc(O)c4-c4cc3ccc4O)C(OC3CC(C)(N)C(O)C(C)O3)c3ccc(c(Cl)c3)Oc3cc2cc(c3OC2OC(CO)C(O)C(O)C2OC2CC(C)(NCc3ccc(Cl)cc3)C(O)C(C)O2)Oc2ccc(cc2Cl)C1O (centres unmarked) [Compound 60]
MIC determined in absence of added serum ([1]; absence (-) of human serum): 0.76 | ratio of the MIC in the presence of added serum to the MIC in the absence of added serum ([1]; indication of the degree of serum binding): 2.0 | MIC determined in presence of human serum ([1]; presence (+) of human serum, broth supplemented with human serum to 40%): 1.5 | MIC [2]: .25 µg/mL (≈ 0.146 µM) | ED50 (Streptococcus pyogenes): 0.06 mg/kg/2 | Ratio (mean MIC vancomycin-resistant strains / mean MIC vancomycin-susceptible strains) [3]: 5.5 | Geometric Mean MIC, Vanco^r Strains [3]: 3.6 µg/mL | MIC (Enterococcus faecium X66): .25 µg/mL (≈ 0.146 µM) | ED50 (Staphylococcus aureus): 0.25 mg/kg/2 | Geometric Mean MIC, Vanco^s Strains [4]: 0.65 µg/mL | MIC [5]: .06 µg/mL (≈ 0.0349 µM) | MIC [6]: > 128 µg/mL | MIC [7]: .06 µg/mL (≈ 0.0349 µM) | MIC (Escherichia coli N10): > 128 µg/mL | MIC [8]: .25 µg/mL (≈ 0.146 µM) | MIC [9]: > 128 µg/mL | MIC [10]: .5 µg/mL (≈ 0.291 µM) | MIC [11]: > 128 µg/mL | MIC [12]: > 128 µg/mL | MIC [13]: .25 µg/mL (≈ 0.146 µM) | MIC [14]: > 128 µg/mL | MIC [15]: .125 µg/mL (≈ 0.0728 µM) | MIC (Escherichia coli TEM): > 128 µg/mL | MIC [16]: .5 µg/mL (≈ 0.291 µM) | MIC (Escherichia coli EC14): > 128 µg/mL | ED50 (Streptococcus pneumoniae): 0.08 mg/kg/2

CCCCCCCCN[C@@]1(C)C[C@H](O[C@H]2[C@H](Oc3c4cc5cc3Oc3ccc(cc3Cl)[C@@H](O)[C@@H](NC(=O)[C@@H](CC(C)C)NC)C(=O)N[C@@H](CC(N)=O)C(=O)N[C@H]5C(=O)N[C@H]3C(=O)N[C@H](C(=O)N[C@H](C(=O)O)c5cc(O)cc(O)c5-c5cc3ccc5O)[C@H](O[C@H]3C[C@](C)(N)[C@@H](O)[C@H](C)O3)c3ccc(cc3)O4)O[C@H](CO)[C@@H](O)[C@@H]2O)O[C@@H](C)[C@@H]1O [Compound 1]
MIC [2]: 1 µg/mL (≈ 0.599 µM) | ED50 (Streptococcus pyogenes): 0.43 mg/kg/2 | Ratio (mean MIC vancomycin-resistant strains / mean MIC vancomycin-susceptible strains) [3]: 4.9 | Geometric Mean MIC, Vanco^r Strains [3]: 9.7 µg/mL | MIC (Enterococcus faecium X66): 1 µg/mL (≈ 0.599 µM) | ED50 (Staphylococcus aureus): 3.35 mg/kg/2 | Geometric Mean MIC, Vanco^s Strains [4]: 2.2 µg/mL | MIC [17]: .5 µg/mL (≈ 0.299 µM) | MIC [5]: .5 µg/mL (≈ 0.299 µM) | MIC [6]: > 128 µg/mL | MIC [7]: .25 µg/mL (≈ 0.15 µM) | MIC (Escherichia coli N10): > 128 µg/mL | MIC [8]: 1 µg/mL (≈ 0.599 µM) | MIC [9]: > 128 µg/mL | MIC [10]: 1 µg/mL (≈ 0.599 µM) | MIC [11]: > 128 µg/mL | MIC [12]: > 128 µg/mL | MIC [13]: 1 µg/mL (≈ 0.599 µM) | MIC [14]: > 128 µg/mL | MIC [15]: 1 µg/mL (≈ 0.599 µM) | MIC (Escherichia coli TEM): > 128 µg/mL | MIC [16]: 1 µg/mL (≈ 0.599 µM) | MIC (Escherichia coli EC14): > 128 µg/mL | ED50 (Streptococcus pneumoniae): 0.43 mg/kg/2

CNC(CC(C)C)C(=O)NC1C(=O)NC(CC(N)=O)C(=O)NC2C(=O)NC3C(=O)NC(C(=O)NC(C(=O)O)c4cc(O)cc(O)c4-c4cc3ccc4O)C(OC3CC(C)(N)C(O)C(C)O3)c3ccc(c(Cl)c3)Oc3cc2cc(c3OC2OC(CO)C(O)C(O)C2OC2CC(C)(NCC(c3ccccc3)c3ccccc3)C(O)C(C)O2)Oc2ccc(cc2Cl)C1O (centres unmarked) [Compound 45]
MIC [2]: .5 µg/mL (≈ 0.282 µM) | ED50 (Streptococcus pyogenes): 0.1 mg/kg/2 | Ratio (mean MIC vancomycin-resistant strains / mean MIC vancomycin-susceptible strains) [3]: 5.5 | Geometric Mean MIC, Vanco^r Strains [3]: 9.4 µg/mL | MIC (Enterococcus faecium X66): .5 µg/mL (≈ 0.282 µM) | ED50 (Staphylococcus aureus): 0.77 mg/kg/2 | Geometric Mean MIC, Vanco^s Strains [4]: 1.7 µg/mL | MIC [17]: .5 µg/mL (≈ 0.282 µM) | MIC [5]: .25 µg/mL (≈ 0.141 µM) | MIC [6]: > 128 µg/mL | MIC [7]: .125 µg/mL (≈ 0.0705 µM) | MIC (Escherichia coli N10): > 128 µg/mL | MIC [8]: .5 µg/mL (≈ 0.282 µM) | MIC [9]: > 128 µg/mL | MIC [10]: 1 µg/mL (≈ 0.564 µM) | MIC [11]: > 128 µg/mL | MIC [12]: > 128 µg/mL | MIC [13]: .5 µg/mL (≈ 0.282 µM) | MIC [14]: > 128 µg/mL | MIC [15]: .25 µg/mL (≈ 0.141 µM) | MIC (Escherichia coli TEM): > 128 µg/mL | MIC [16]: .5 µg/mL (≈ 0.282 µM) | MIC (Escherichia coli EC14): > 128 µg/mL | ED50 (Streptococcus pneumoniae): 0.1 mg/kg/2
